Source: BindingDB's records for doi:10.1016/j.bmc.2018.08.021 (Zhengzhou University, 2018)

Legend:
[1] = Inhibition of ABCB1 in human SW620/Ad300 cells assessed as potentiation of doxorubicin-induced cytotoxicity by measuring doxorubicin IC50 at 4 uM after 72 hrs by MTT assay (Rvb = 6.15 +/- 0.63 microM)
[2] = Inhibition of ABCB1 (unknown origin) expressed in HEK293T cells assessed as potentiation of doxorubicin-induced cytotoxicity by measuring doxorubicin IC50 at 4 uM after 72 hrs by MTT assay (Rvb = 1.17 +/- 0.09 microM)
[3] = Inhibition of ABCB1 (unknown origin) expressed in HEK293T cells assessed as potentiation of cisplatin-induced cytotoxicity by measuring cisplatin IC50 at 4 uM after 72 hrs by MTT assay (Rvb = 7.22 +/- 0.45 microM)
[4] = Inhibition of ABCB1 (unknown origin) expressed in HEK293T cells assessed as potentiation of doxorubicin-induced cytotoxicity by measuring doxorubicin IC50 at 10 uM after 72 hrs by MTT assay (Rvb = 1.17 +/- 0.09 microM)
[5] = Inhibition of ABCB1 in human SW620/Ad300 cells assessed as potentiation of doxorubicin-induced cytotoxicity by measuring doxorubicin IC50 at 10 uM after 72 hrs by MTT assay (Rvb = 6.15 +/- 0.63 microM)
[6] = Inhibition of ABCB1 (unknown origin) expressed in HEK293T cells assessed as potentiation of paclitaxel-induced cytotoxicity by measuring paclitaxel IC50 at 4 uM after 72 hrs by MTT assay (Rvb = 0.09 +/- 0.02 microM)
[7] = Inhibition of ABCB1 in human SW620/Ad300 cells assessed as potentiation of cisplatin-induced cytotoxicity by measuring cisplatin IC50 at 4 uM after 72 hrs by MTT assay (Rvb = 0.61 +/- 0.03 microM)
[8] = Inhibition of ABCB1 in human SW620/Ad300 cells assessed as potentiation of cisplatin-induced cytotoxicity by measuring cisplatin IC50 at 20 uM after 72 hrs by MTT assay (Rvb = 0.61 +/- 0.03 microM)
[9] = Inhibition of ABCB1 (unknown origin) expressed in HEK293T cells assessed as potentiation of cisplatin-induced cytotoxicity by measuring cisplatin IC50 at 10 uM after 72 hrs by MTT assay (Rvb = 7.22 +/- 0.45 microM)
[10] = Inhibition of ABCB1 in human SW620/Ad300 cells assessed as potentiation of paclitaxel-induced cytotoxicity by measuring paclitaxel IC50 at 10 uM after 72 hrs by MTT assay (Rvb = 3.39 +/- 0.84 microM)
[11] = Inhibition of ABCB1 in human SW620/Ad300 cells assessed as potentiation of paclitaxel-induced cytotoxicity by measuring paclitaxel IC50 at 4 uM after 72 hrs by MTT assay (Rvb = 3.39 +/- 0.84 microM)
[12] = Inhibition of ABCB1 in human SW620/Ad300 cells assessed as potentiation of cisplatin-induced cytotoxicity by measuring cisplatin IC50 at 10 uM after 72 hrs by MTT assay (Rvb = 0.61 +/- 0.03 microM)
[13] = Inhibition of ABCB1 in human SW620/Ad300 cells assessed as potentiation of paclitaxel-induced cytotoxicity by measuring paclitaxel IC50 at 20 uM after 72 hrs by MTT assay (Rvb = 3.39 +/- 0.84 microM)
[14] = Inhibition of ABCB1 (unknown origin) expressed in HEK293T cells assessed as potentiation of doxorubicin-induced cytotoxicity by measuring doxorubicin IC50 at 20 uM after 72 hrs by MTT assay (Rvb = 1.17 +/- 0.09 microM)
[15] = Inhibition of ABCB1 (unknown origin) expressed in HEK293T cells assessed as potentiation of paclitaxel-induced cytotoxicity by measuring paclitaxel IC50 at 10 uM after 72 hrs by MTT assay (Rvb = 0.09 +/- 0.02 microM)
[16] = Inhibition of ABCB1 (unknown origin) expressed in HEK293T cells assessed as potentiation of cisplatin-induced cytotoxicity by measuring cisplatin IC50 at 20 uM after 72 hrs by MTT assay (Rvb = 7.22 +/- 0.45 microM)
[17] = Inhibition of ABCB1 (unknown origin) expressed in HEK293T cells assessed as potentiation of paclitaxel-induced cytotoxicity by measuring paclitaxel IC50 at 20 uM after 72 hrs by MTT assay (Rvb = 0.09 +/- 0.02 microM)
[18] = Inhibition of ABCB1 in human SW620/Ad300 cells assessed as potentiation of doxorubicin-induced cytotoxicity by measuring doxorubicin IC50 at 20 uM after 72 hrs by MTT assay (Rvb = 6.15 +/- 0.63 microM)

SMILES: O=c1cc(-c2ccccc2)[nH]c2nc(SCc3nc4ccccc4[nH]3)nn12
- IC50 [1]: 920 nM
- IC50 [2]: 290 nM
- IC50 [3]: 7.1 µM
- IC50 [4]: 380 nM
- IC50 [5]: 1280 nM
- IC50 [6]: 30 nM
- IC50 [7]: 1590 nM
- IC50 [8]: 1640 nM
- IC50 [9]: 8.26 µM
- IC50 [10]: 1470 nM
- IC50 [11]: 830 nM
- IC50 [12]: 1550 nM
- IC50 [13]: 660 nM
- IC50 [14]: 290 nM
- IC50 [15]: 50 nM
- IC50 [16]: 7.16 µM
- IC50 [17]: 40 nM
- IC50 [18]: 800 nM
